Target: human PAD4 (hPAD4) (Homo sapiens (Human), UniProt Q9UM07)
Test: RFMS Human PAD4 Functional Assay 1
Format: biochemical
Conditions: RFMS assay 1; 5 nM hPAD4, 250 μM BAEE substrate, 50 μM calcium, 37° C.
Summary of the method: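 Recombinant hPAD4 (5 nM) was preincubated with compound (top 50 μM, 0.5% DMSO) for 30 min at 37 °C, then reacted with 250 μM BAEE for 90 min at 37 °C in pH 7.5 HEPES buffer with 50 μM calcium and 5 μM TPEN. Product was derivatized with phenyl glyoxal and quantified by RapidFire MS.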

human PAD4 (hPAD4), sequence (Q9UM07 whole entry): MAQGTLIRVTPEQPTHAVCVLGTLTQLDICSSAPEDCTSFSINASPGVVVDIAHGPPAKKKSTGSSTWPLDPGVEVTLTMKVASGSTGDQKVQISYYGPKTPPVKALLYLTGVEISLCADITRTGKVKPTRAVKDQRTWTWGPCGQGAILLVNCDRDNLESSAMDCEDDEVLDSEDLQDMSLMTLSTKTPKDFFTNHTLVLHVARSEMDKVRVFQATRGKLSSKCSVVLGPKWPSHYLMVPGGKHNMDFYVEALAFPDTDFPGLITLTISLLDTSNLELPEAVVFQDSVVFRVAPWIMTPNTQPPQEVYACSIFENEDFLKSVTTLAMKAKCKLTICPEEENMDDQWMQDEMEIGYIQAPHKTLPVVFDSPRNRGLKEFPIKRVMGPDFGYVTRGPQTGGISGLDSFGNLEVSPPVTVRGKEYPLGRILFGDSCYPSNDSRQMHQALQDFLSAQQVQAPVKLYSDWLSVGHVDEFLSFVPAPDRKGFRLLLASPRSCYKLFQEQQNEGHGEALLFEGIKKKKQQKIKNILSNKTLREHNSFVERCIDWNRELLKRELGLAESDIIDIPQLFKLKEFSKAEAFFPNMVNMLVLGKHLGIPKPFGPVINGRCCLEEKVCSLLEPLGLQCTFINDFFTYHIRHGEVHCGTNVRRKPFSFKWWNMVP

Row | Compound | IC50 [nM]
1 | COc1cc(C(=O)N2C[C@H](N)C[C@@H](F)C2)cn2nc(-c3cc4ccc(-c5ccc6c(c5)C(=O)NC6)cc4n3CC3CC3)c(C)c12 [Example 29, 6-(2-(6-((3R,5R)-3-Amino-5-fluoropiperidine-1-carbonyl)-4-methoxy-3-methylpyrazolo[1,5-a]pyridin-2-yl)-1-(cyclopropylmethyl)-1H-indol-6-yl)isoindolin-1-one] | 1020
2 | COc1cc(C(=O)N2C[C@H](N)C[C@@H](F)C2)cn2nc(-c3cc4ccc(-c5ccc6c(c5)CNC6=O)cc4n3CC3CC3)c(C)c12 [Example 30, 5-(2-(6-((3R,5R)-3-Amino-5-fluoropiperidine-1-carbonyl)-4-methoxy-3-methylpyrazolo[1,5-a]pyridin-2-yl)-1-(cyclopropylmethyl)-1H-indol-6-yl)isoindolin-1-one] | 84
3 | COc1cc(C(=O)N2C[C@H](N)C[C@@H](F)C2)cn2nc(-c3cc4ccc(-c5ccn6c(C)nnc6c5)cc4n3CC3CC3)c(C)c12 [Example 31, ((3R,5R)-3-Amino-5-fluoropiperidin-1-yl)(2-(1-(cyclopropylmethyl)-6-(3-methyl-[1,2,4]triazolo[4,3-a]pyridin-7-yl)-1H-indol-2-yl)-4-methoxy-3-methylpyrazolo[1,5-a]pyridin-6-yl)methanone] | 65
4 | COc1cc(C(=O)N2C[C@H](N)C[C@@H](F)C2)cn2nc(-c3cc4ccc(-c5cccc(O)c5F)cc4n3CC3CC3)c(C)c12 [Example 32, ((3R,5R)-3-Amino-5-fluoropiperidin-1-yl)(2-(1-(cyclopropylmethyl)-6-(2-fluoro-3-hydroxyphenyl)-1H-indol-2-yl)-4-methoxy-3-methylpyrazolo[1,5-a]pyridin-6-yl)methanone] | 414
5 | COCC1CN(c2ccc3cc(-c4nn5cc(C(=O)N6C[C@H](N)C[C@@H](F)C6)cc(OC)c5c4C)n(CC4CC4)c3c2)C1 [Example 33, ((3R,5R)-3-Amino-5-fluoropiperidin-1-yl)(2-(1-(cyclopropylmethyl)-6-(3-(methoxymethyl)-azetidin-1-yl)-1H-indol-2-yl)-4-methoxy-3-methylpyrazolo[1,5-a]pyridin-6-yl)methanone] | 534
6 | COc1cc(C(=O)N2C[C@H](N)C[C@@H](F)C2)cn2nc(-c3cc4ccc(N5C[C@H](N)C[C@@H](F)C5)cc4n3CC3CC3)c(C)c12 [Example 34, ((3R,5R)-3-Amino-5-fluoropiperidin-1-yl)(2-(6-((3R,5R)-3-amino-5-fluoropiperidin-1-yl)-1-(cyclopropylmethyl)-1H-indol-2-yl)-4-methoxy-3-methylpyrazolo[1,5-a]pyridin-6-yl)methanone] | 42
7 | COc1cc(C(=O)N2C[C@H](N)C[C@@H](F)C2)cn2nc(-c3cc4ccc(N5CCC(OC)CC5)cc4n3CC3CC3)c(C)c12 [Example 35, ((3R,5R)-3-Amino-5-fluoropiperidin-1-yl)(2-(1-(cyclopropylmethyl)-6-(4-methoxypiperidin-1-yl)-1H-indol-2-yl)-4-methoxy-3-methylpyrazolo[1,5-a]pyridin-6-yl)methanone] | 139
8 | COc1cc(C(=O)N2C[C@H](N)C[C@@H](F)C2)cn2nc(-c3cc4ccc(NC[C@@H](F)C(C)(C)O)cc4n3CC3CC3)c(C)c12 [Example 36, ((3R,5R)-3-Amino-5-fluoropiperidin-1-yl)(2-(1-(cyclopropylmethyl)-6-(((R)-2-fluoro-3-hydroxy-3-methylbutyl)amino)-1H-indol-2-yl)-4-methoxy-3-methylpyrazolo[1,5-a]pyridin-6-yl)methanone] | 782
9 | COc1cc(C(=O)N2C[C@H](N)C[C@@H](F)C2)cn2nc(-c3cc4ccc(N5CC(F)(CO)C5)cc4n3CC3CC3)c(C)c12 [Example 37, ((3R,5R)-3-Amino-5-fluoropiperidin-1-yl)(2-(1-(cyclopropylmethyl)-6-(3-fluoro-3-(hydroxymethyl)azetidin-1-yl)-1H-indol-2-yl)-4-methoxy-3-methylpyrazolo[1,5-a]pyridin-6-yl)methanone] | 3610
10 | Cc1c(-c2cc3cccnc3n2CC2CC2)nn2cc(C(=O)N3CC4CCC3[C@@H]4N)cc(F)c12 (stereo partly drawn) [Example 38, ((7R)-7-Amino-2-azabicyclo[2.2.1]heptan-2-yl)(2-(1-(cyclopropylmethyl)-1H-pyrrolo[2,3-b]pyridin-2-yl)-4-fluoro-3-methylpyrazolo[1,5-a]pyridin-6-yl)methanone] | 158
11 | Cc1c(-c2cc3ccc(Cl)nc3n2CC2CC2)nn2cc(C(=O)N3CC4CCC3[C@@H]4N)cc(F)c12 (stereo partly drawn) [Example 39, ((7R)-7-Amino-2-azabicyclo[2.2.1]heptan-2-yl)(2-(6-chloro-1-(cyclopropylmethyl)-1H-pyrrolo[2,3-b]pyridin-2-yl)-4-fluoro-3-methylpyrazolo[1,5-a]pyridin-6-yl)methanone] | 87
12 | Cc1ccc2cc(-c3nn4cc(C(=O)N5CC6CCC5[C@@H]6N)cc(F)c4c3C)n(CC3CC3)c2n1 (stereo partly drawn) [Example 40, 3((7R)-7-Amino-2-azabicyclo[2.2.1]heptan-2-yl)(2-(1-(cyclopropylmethyl)-6-methyl-1H-pyrrolo[2,3-b]pyridin-2-yl)-4-fluoro-3-methylpyrazolo[1,5-a]pyridin-6-yl)methanone] | 25
13 | Cc1c(-c2cc3ccc(C4CC4)nc3n2CC2CC2)nn2cc(C(=O)N3CC4CCC3[C@@H]4N)cc(F)c12 (stereo partly drawn) [Example 41, ((7R)-7-Amino-2-azabicyclo[2.2.1]heptan-2-yl)(2-(6-cyclopropyl-1-(cyclopropylmethyl)-1H-pyrrolo[2,3-b]pyridin-2-yl)-4-fluoro-3-methylpyrazolo[1,5-a]pyridin-6-yl)methanone] | 85
14 | Cc1c(-c2cc3ccc(-c4ccc5c(c4)CNC5=O)nc3n2CC2CC2)nn2cc(C(=O)N3CC4CCC3[C@@H]4N)cc(F)c12 (stereo partly drawn) [Example 42, 5-(2-(6-((7R)-7-Amino-2-azabicyclo[2.2.1]heptane-2-carbonyl)-4-fluoro-3-methylpyrazolo[1,5-a]pyridin-2-yl)-1-(cyclopropylmethyl)-1H-pyrrolo[2,3-b]pyridin-6-yl)isoindolin-1-one] | 9
15 | Cc1c(-c2cc3ccc(-c4ccn5c(C)nnc5c4)nc3n2CC2CC2)nn2cc(C(=O)N3CC4CCC3[C@@H]4N)cc(F)c12 (stereo partly drawn) [Example 43, ((7R)-7-Amino-2-azabicyclo[2.2.1]heptan-2-yl)(2-(1-(cyclopropylmethyl)-6-(3-methyl-[1,2,4]triazolo[4,3-a]pyridin-7-yl)-1H-pyrrolo[2,3-b]pyridin-2-yl)-4-fluoro-3-methylpyrazolo[1,5-a]pyridin-6-yl)methanone] | 150
16 | Cc1c(-c2cc3ccc(-c4ccc(OC(F)F)c(F)c4)nc3n2CC2CC2)nn2cc(C(=O)N3CC4CCC3[C@@H]4N)cc(F)c12 (stereo partly drawn) [Example 44, ((7R)-7-Amino-2-azabicyclo[2.2.1]heptan-2-yl)(2-(1-(cyclopropylmethyl)-6-(4-(difluoromethoxy)-3-fluorophenyl)-1H-pyrrolo[2,3-b]pyridin-2-yl)-4-fluoro-3-methylpyrazolo[1,5-a]pyridin-6-yl)methanone] | 1480
17 | COc1cc(-c2ccc3cc(-c4nn5cc(C(=O)N6CC7CCC6[C@@H]7N)cc(F)c5c4C)n(CC4CC4)c3n2)c(F)cn1 (stereo partly drawn) [Example 45, ((7R)-7-Amino-2-azabicyclo[2.2.1]heptan-2-yl)(2-(1-(cyclopropylmethyl)-6-(5-fluoro-2-methoxypyridin-4-yl)-1H-pyrrolo[2,3-b]pyridin-2-yl)-4-fluoro-3-methylpyrazolo[1,5-a]pyridin-6-yl)methanone] | 101
18 | Cc1c(-c2cc3ccc(-c4ccc5c(c4)C(=O)NC5)nc3n2CC2CC2)nn2cc(C(=O)N3CC4CCC3[C@@H]4N)cc(F)c12 (stereo partly drawn) [Example 46, 6-(2-(6-((7R)-7-Amino-2-azabicyclo[2.2.1]heptane-2-carbonyl)-4-fluoro-3-methylpyrazolo[1,5-a]pyridin-2-yl)-1-(cyclopropylmethyl)-1H-pyrrolo[2,3-b]pyridin-6-yl)isoindolin-1-one] | 41
19 | Cc1c(-c2cc3ccc(-c4ccc(OC(F)F)cc4)nc3n2CC2CC2)nn2cc(C(=O)N3CC4CCC3[C@@H]4N)cc(F)c12 (stereo partly drawn) [Example 47, ((7R)-7-Amino-2-azabicyclo[2.2.1]heptan-2-yl)(2-(1-(cyclopropylmethyl)-6-(4-(difluoromethoxy)phenyl)-1H-pyrrolo[2,3-b]pyridin-2-yl)-4-fluoro-3-methylpyrazolo[1,5-a]pyridin-6-yl)methanone] | 1480
20 | Cc1c(-c2cc3ccc(-c4ccc(O)c(F)c4)nc3n2CC2CC2)nn2cc(C(=O)N3CC4CCC3[C@@H]4N)cc(F)c12 (stereo partly drawn) [Example 48, ((7R)-7-Amino-2-azabicyclo[2.2.1]heptan-2-yl)(2-(1-(cyclopropylmethyl)-6-(3-fluoro-4-hydroxyphenyl)-1H-pyrrolo[2,3-b]pyridin-2-yl)-4-fluoro-3-methylpyrazolo[1,5-a]pyridin-6-yl)methanone] | 326
21 | Cc1c(-c2cc3ccc(-c4cccc(O)c4F)nc3n2CC2CC2)nn2cc(C(=O)N3CC4CCC3[C@@H]4N)cc(F)c12 (stereo partly drawn) [Example 49, ((7R)-7-Amino-2-azabicyclo[2.2.1]heptan-2-yl)(2-(1-(cyclopropylmethyl)-6-(2-fluoro-3-hydroxyphenyl)-1H-pyrrolo[2,3-b]pyridin-2-yl)-4-fluoro-3-methylpyrazolo[1,5-a]pyridin-6-yl)methanone] | 36
22 | COC1CN(c2ccc3cc(-c4nn5cc(C(=O)N6CC7CCC6[C@@H]7N)cc(F)c5c4C)n(CC4CC4)c3n2)C1 (stereo partly drawn) [Example 50, ((7R)-7-Amino-2-azabicyclo[2.2.1]heptan-2-yl)(2-(1-(cyclopropylmethyl)-6-(3-methoxyazetidin-1-yl)-1H-pyrrolo[2,3-b]pyridin-2-yl)-4-fluoro-3-methylpyrazolo[1,5-a]pyridin-6-yl)methanone] | 74
23 | Cc1c(-c2cc3ccc(N4CCC[C@@H](O)C4)nc3n2CC2CC2)nn2cc(C(=O)N3CC4CCC3[C@@H]4N)cc(F)c12 (some centres unmarked) [Example 51] | 109
